Data from article PMC6321145 (Molecules, 2018).

Key:
Aβ1–42 [1] = target: T1, Aβ1–42 (Homo sapiens, UniProt P05067); test: Inhibition of self-induced Aβ1–42 aggregation (ThT fluorescence assay); format: biochemical
T1 construct: Aβ1–42 (Sigma, St. Louis, MO, USA; counterion, NaOH) stock solution was prepared by dissolving Aβ1–42 peptide in ammonium hydroxide; purchased Sigma
Procedure: The formation and aggregation of Aβ1–42 in the brain leads to neurotoxicity in AD. In order to evaluate the activity of our new synthetic compounds to inhibit Aβ1–42 self-induced aggregation, the thioflavin (ThT) fluorescence assay was performed.
All ThT experiments were performed according to our previously published methods. Aβ1–42 (Sigma, St. Louis, MO, USA; counterion, NaOH) stock solution was prepared by dissolving Aβ1–42 peptide in ammonium hydroxide (1% v/v), and diluting with 20 mM phosphate buffer (pH 7.4) to 100 μM. The tested compounds were firstly dissolved in DMSO at a concentration of 10 mM, and then diluted with 20 mM phosphate buffer (pH 7.4) to 40 μM.
For the inhibition of self-induced Aβ1–42 aggregation. Aβ1–42 peptide (2 μL, 50 μM, final concentration) with the tested compound (2 μL, 20 μM, final concentration) or 20 mM phosphate buffer (2 μL) was incubated in 20 mM phosphate buffer (pH 7.4) at 37 °C for 72 h. After incubation, the samples were diluted to a final volume of 36 μL with 50 mM glycine-NaOH buffer (pH 8.5) containing 5 μM Thioflavin T. Fluorescence signal was measured (excitation wavelength 450 nm, emission wavelength 485 nm, and slit widths set to 5 nm) on a monochromator-based multimode microplate reader ([…] M1000, TECAN, Hombrechtikon, Switzerland), adapted for 384-well microtiter plates. […] Each compound was examined in triplicate.

Aβ1–42 [2] = target: T1, Aβ1–42; test: Inhibition of Cu^2+-induced Aβ1–42 aggregation (ThT-binding assay); format: biochemical; details: [Aβ] = 20 μM, [Cu^2+] = 20 μM, [compound] = 40 μM; 37 °C, 24 h
Procedure: To investigate the ability of compound 6b1 to inhibit Cu^2+-induced Aβ1–42 aggregation, the ThT-binding assay was performed.
Aβ was diluted in […] (pH 6.6) with […]. The mixture of the peptide (10 μL, 20 μM, final concentration) with or without copper (10 μL, 20 μM, final concentration) and the test compound (10 μL, 40 μM, final concentration) was incubated at 37 °C for 24 h. The 30 μL of the sample was diluted to a final volume of 200 μL with 50 mM glycine-NaOH buffer (pH 8.0) containing thioflavin T (5 μM). The detection method was the same as that of self-induced Aβ aggregation experiment.

[3] = Cytotoxicity on SH-SY5Y cells (MTT); format: cell-based, human; details: human, SH-SY5Y neuroblastoma cells; MTT, 24 h; mean ± SEM of three measurements
Procedure: (§1) The cytotoxicity of our synthesized compounds was examined in human neuroblastoma SH-SY5Y cells. The cell viability was determined by using methyl thiazolyl tetrazolium (MTT) colorimetry, the cells were treated with different concentrations of compounds (0–100 μM). The result is shown in the Supplementary Materials (Table S1).
(§2) The cytotoxicities of the compounds were evaluated using the MTT assay. SH-SY5Y cells were subcultured in 96-well plates at a seeding density of 1 × 10^4 cells per well. After 24 h, the medium was removed and treated with different concentrations of tested compounds for 24 h at 37 °C. The survival of cells was determined with MTT assay. Then 80 μL of medium and 20 μL of MTT (0.5 mg/mL, final concentration) were added to each well and incubated for another 4 h. After the removal of MTT, the formazan crystals were dissolved in DMSO. The amount of formazan was measured using a microculture plate reader at the wavelength of 570 nm. Each concentration was performed in triplicate.

SH-SY5Y cells = test: Cytotoxicity on SH-SY5Y cells (MTT); format: cell-based, human; details: 20 μM
Procedure: as §1, §2

[4] = system: SH-SY5Y human neuroblastoma cells; test: Protective effect against Aβ1–42-induced toxicity in SH-SY5Y cells (MTT); format: cell-based
Procedure: The cytoprotective effect of compound 6b1 against Aβ1–42 damage in SH-SY5Y human neuroblastoma cell lines was determined by MTT assay. […] To investigate the protective effect of compound 6b1 on Aβ1–42 induced cell toxicity, SH-SY5Y cells exposed to Aβ1–42 (20 μM) were incubated with different concentrations of compound 6b1 (5, 10, and 20 μM) for 24 h, and the cell viability was tested.
SH-SY5Y cells were seeded in 96-well plates (1 × 10^4 cells per well) and exposed to Aβ1–42 (20 μM) in the presence of compound 6b1 at the increasing doses (0, 5, 10 and 20 μM). After 24 h and 48 h, cell viability was measured by the MTT assay.

mice = test: Step-down passive avoidance test, scopolamine-induced memory impairment; format: in vivo
Procedure: A step-down passive avoidance test was used to assess learning and memory in mice. The apparatus (Shanghai XinRuan, Shanghai, China) consisted of two identically sized compartments, with a guillotine door to separate light and dark. Illumination was available in the light box through LED lights at 250 lux. The mice underwent two separate trials: a training trial and a test trial 24 h later. For training trial, mice were initially placed in the light compartment and were allowed to explore the environment freely for 5 min so that they can be familiar with the environment. Then the door was opened, the mice tried to enter the dark compartment since they preferred to stay in dark place. As soon as the mice came into the dark compartment, an electrical shock was delivered through the steel rods. The training lasted for 5 min. […] The test trial was preformed after 24 h. The mice were placed into the light compartment and the door was opened. The time that the mouse spent to enter the dark compartment was recorded as the latency. The numbers that the mouse entered the dark compartment during 5 min were measured as error numbers.

AChE = AChE (Homo sapiens, UniProt P22303); test: AChE inhibition (data not shown); format: biochemical
BuChE = BuChE (Homo sapiens, UniProt P06276); test: BuChE inhibition (data not shown); format: biochemical
Chain of BuChE (P06276 29-602): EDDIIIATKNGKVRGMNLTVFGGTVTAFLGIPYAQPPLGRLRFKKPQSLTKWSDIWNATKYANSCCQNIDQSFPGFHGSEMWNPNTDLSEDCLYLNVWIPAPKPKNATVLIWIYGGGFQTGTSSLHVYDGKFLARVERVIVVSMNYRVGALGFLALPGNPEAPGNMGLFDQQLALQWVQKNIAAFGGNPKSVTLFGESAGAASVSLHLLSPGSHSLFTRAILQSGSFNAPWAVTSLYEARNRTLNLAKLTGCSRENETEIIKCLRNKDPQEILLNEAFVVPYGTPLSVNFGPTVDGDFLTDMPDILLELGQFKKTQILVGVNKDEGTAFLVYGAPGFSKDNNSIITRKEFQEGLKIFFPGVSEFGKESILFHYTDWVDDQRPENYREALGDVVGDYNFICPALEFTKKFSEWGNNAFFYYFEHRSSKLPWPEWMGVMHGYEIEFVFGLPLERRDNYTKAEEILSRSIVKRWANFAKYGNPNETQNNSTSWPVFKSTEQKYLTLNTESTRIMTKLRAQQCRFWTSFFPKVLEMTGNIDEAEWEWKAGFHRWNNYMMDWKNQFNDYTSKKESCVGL

T1 sequence (P05067 672-713): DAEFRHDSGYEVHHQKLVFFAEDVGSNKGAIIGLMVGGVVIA
Chain of AChE (P22303 32-614): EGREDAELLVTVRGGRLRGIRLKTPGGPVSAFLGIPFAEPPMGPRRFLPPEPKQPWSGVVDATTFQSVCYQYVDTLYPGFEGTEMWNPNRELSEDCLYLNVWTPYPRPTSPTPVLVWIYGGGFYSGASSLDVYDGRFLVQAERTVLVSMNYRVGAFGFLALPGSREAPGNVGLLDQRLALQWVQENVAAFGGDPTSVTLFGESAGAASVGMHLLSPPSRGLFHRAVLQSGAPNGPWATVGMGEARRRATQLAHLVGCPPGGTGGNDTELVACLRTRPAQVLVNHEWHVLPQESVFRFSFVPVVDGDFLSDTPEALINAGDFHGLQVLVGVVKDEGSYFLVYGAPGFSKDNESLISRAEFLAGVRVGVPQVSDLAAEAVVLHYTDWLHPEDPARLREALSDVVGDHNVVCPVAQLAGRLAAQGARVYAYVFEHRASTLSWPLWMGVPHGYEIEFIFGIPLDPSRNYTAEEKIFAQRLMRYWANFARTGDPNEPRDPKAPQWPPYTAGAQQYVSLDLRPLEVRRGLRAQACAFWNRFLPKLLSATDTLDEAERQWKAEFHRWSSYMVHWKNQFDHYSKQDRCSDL

Question: Which results are given for `CCN(CC)c1ccc(/C=C/c2cc(NCCCN(C)C)c3ccccc3n2)cc1` [Compound 6b1, (E)-N^1-(2-(4-(Diethylamino)styryl)quinolin-4-yl)-N^3,N^3-dimethylpropane-1,3-diamine]?
Answer: IC50 (Aβ1–42 [1]; ThT fluorescence method, mean ± SD of three experiments, read-out: IC50 against self-induced Aβ1–42 aggregation): 4.5 ± 0.7 µM; inhibition at 20 µM (Aβ1–42 [1]; inhibitor 20 μM, Aβ1–42 50 μM, ThT, 37 °C, 72 h, mean ± SD): 95.3 ± 1.2%; Inhibition of Cu^2+-induced Aβ aggregation (Aβ1–42 [2]): 85.8%; IC50 at 24 h [3]: 254 µM; Effect on SH-SY5Y cell viability, compound alone (SH-SY5Y cells): does not affect cell viability; Cell viability against Aβ1–42-induced cytotoxicity ([4]; Aβ1–42 20 μM, compound 5, 10, 20 μM, 24 h): increased the cell viability; viability at 20 µM ([4]; Homo sapiens, SH-SY5Y, 48 h, read-out: Cell viability after co-incubation with Aβ1–42): 89.8%; Improvement of memory impairment compared with model group (mice; 4.0 mg/kg (low dose)): didn’t exhibit significant improvement; Latency time (mice; 16.0 mg/kg (high dose)): 182 s; Number of errors (mice; 16.0 mg/kg (high dose)): 2.72; Inhibitory activity toward AChE (AChE): weak; Inhibitory activity toward BuChE (BuChE): weak
